Experiments:
[1] = target: T1, bovine serum albumin (BSA) (Bos taurus, UniProt P02769); assay: Albumin binding by tryptophan fluorescence emission quenching; conditions: for K(BSA), BSA-binding constant / kq(BSA), BSA-quenching constant: BSA 3 μM; for K(BSA), BSA-binding constant: buffer pH 7.0, Scatchard equation; for kq(BSA), BSA-quenching constant: buffer pH 7.0, λexc 295 nm, Stern–Volmer, τ0 = 10^–8 s; for BSA fluorescence, % of the initial fluorescence intensity (I/Io): λem,max = 342 nm, final value of titration (Figure S11)
T1 construct: purchased
T1 sequence (P02769 25-607): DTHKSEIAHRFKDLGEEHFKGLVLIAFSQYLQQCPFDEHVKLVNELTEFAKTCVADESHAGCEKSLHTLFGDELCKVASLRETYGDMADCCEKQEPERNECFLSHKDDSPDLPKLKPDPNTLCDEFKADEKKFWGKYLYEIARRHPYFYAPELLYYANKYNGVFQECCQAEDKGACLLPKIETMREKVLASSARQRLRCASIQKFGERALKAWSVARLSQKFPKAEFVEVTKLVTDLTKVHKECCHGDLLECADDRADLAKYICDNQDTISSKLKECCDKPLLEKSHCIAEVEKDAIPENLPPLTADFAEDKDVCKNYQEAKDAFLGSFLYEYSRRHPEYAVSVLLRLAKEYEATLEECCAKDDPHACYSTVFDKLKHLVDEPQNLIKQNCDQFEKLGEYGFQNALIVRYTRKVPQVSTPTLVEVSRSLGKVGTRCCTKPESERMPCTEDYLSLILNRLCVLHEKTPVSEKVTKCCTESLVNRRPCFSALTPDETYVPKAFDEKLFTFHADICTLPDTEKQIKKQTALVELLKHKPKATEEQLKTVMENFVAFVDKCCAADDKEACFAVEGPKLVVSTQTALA
Procedure: (§1) Serum albumins (Sas) are the most abundant serum proteins and play a role in the circulatory system, primarily in the transport of drugs and other bioactive small molecules through the bloodstream.
(§2) The SA-quenching constants (kq) for the compounds (Table 5) were calculated with the Stern–Volmer quenching equation (Equations (S2) and (S3)).
(§3) Albumin-binding constants (K) were calculated using the Scatchard equation (Equation (S4)). […]
(§4) S2. Interaction with serum albumins
(§5) The albumin–binding study for the compounds was carried out b y fluorescence emission

[2] = target: T2, human serum albumin (HSA) (Homo sapiens, UniProt P02768); assay: as above; conditions: for K(HSA), HSA-binding constant / kq(HSA), HSA-quenching constant: HSA 3 μM; for K(HSA), HSA-binding constant: buffer pH 7.0, Scatchard equation; for kq(HSA), HSA-quenching constant: buffer pH 7.0, λexc 295 nm, Stern–Volmer, τ0 = 10^–8 s; for HSA fluorescence, % of the initial fluorescence intensity (I/Io): λem,max = 351 nm, final value of titration (Figure S10)
T2 construct: purchased
T2 sequence (P02768 25-609): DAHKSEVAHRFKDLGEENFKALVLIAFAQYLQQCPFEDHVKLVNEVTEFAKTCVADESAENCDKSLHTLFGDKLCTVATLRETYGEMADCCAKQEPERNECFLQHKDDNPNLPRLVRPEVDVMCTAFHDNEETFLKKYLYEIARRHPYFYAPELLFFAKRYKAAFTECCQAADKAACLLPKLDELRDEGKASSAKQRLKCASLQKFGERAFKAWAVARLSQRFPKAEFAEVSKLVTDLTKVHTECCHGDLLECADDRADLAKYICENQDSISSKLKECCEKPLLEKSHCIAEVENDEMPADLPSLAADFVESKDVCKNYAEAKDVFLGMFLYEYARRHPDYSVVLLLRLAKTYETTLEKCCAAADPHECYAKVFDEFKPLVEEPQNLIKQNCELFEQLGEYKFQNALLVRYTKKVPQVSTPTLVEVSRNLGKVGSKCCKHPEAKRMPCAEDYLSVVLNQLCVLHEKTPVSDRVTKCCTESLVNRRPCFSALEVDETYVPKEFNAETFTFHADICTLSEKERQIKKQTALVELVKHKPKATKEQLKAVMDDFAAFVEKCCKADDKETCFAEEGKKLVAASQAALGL
Procedure: as §1, §2, §3, §4, §5

[3] = test system: CT DNA; assay: Study of the DNA-interaction by cyclic voltammetry; assay type: binding, calf; conditions: for Epa(f), anodic potential / Epc(f), cathodic potential / Epa(b), anodic potential / Epc(b), cathodic potential: M(II)/M(I), 1:2 DMSO/buffer; for Epa(f), anodic potential / Epc(f), cathodic potential: absence of CT DNA; for Epa(b), anodic potential / Epc(b), cathodic potential: presence of CT DNA; for Kr/Kox, ratio of equilibrium DNA-binding constants (reduced/oxidized form): eq. S6
Procedure: Cyclic voltammetry was used to study the interaction of the complexes with CT DNA. An intercalative interaction will induce a positive shift for the electrochemical potential(s) of metal oxidation/reduction, whereas, in the case of electrostatic interaction, a negative shift in the potential(s) may occur. The cyclic voltammograms of the complexes in a 1:2 DMSO:buffer solution (0.33 mM) were recorded in the absence and presence of the CT DNA solution (Figure S13). The predominant electrochemical feature for all complexes is a positive shift in the potential in the presence of CT DNA (ΔEpc/a = (–30)–(+127) mV). Consequently, the intercalative nature of the interaction of the complexes with DNA can be inferred from the presented data.
In order to evaluate further the redox behavior of the complexes, the corresponding equilibrium constants were calculated by determining the ratio Kr/Kox in accordance to Equation (S6), where Kox and Kr are the DNA-binding constants for the oxidized and reduced form, respectively, of the metal ions. For all complexes, the Kr/Kox ratio is close to or above 1 (Table 7), showing the selective binding of DNA to the […] form of the complexes. […]
S3.3 Study of the DNA –interaction by cyclic vol ta mmetry
Cyclic voltammetr y can be also used in order to calculate the corresponding equilibrium constant for the redox process. The ratio of the DNA–binding constants for the reduced (K r) and oxidized forms (Kox) of t he complex es (Kr/Kox) w as calculat ed according t o eq. S6:
Δ = = 0.059 × lo gEE E K oxoo o (eq. S6) […]
where Eo and Eo are the formal potentials of M(II)/M(I) redox couple in the fully bound and […]
free complexes, respectivel y. Kox and Kr are the binding constants for the binding of the oxidized and reduced species to DNA, respectivel y [S8] . […]

Row | SMILES | K(BSA), BSA-binding constant [1] | kq(BSA), BSA-quenching constant [1] | BSA fluorescence, % of the initial fluorescence intensity (I/Io) [1] [%] | K(HSA), HSA-binding constant [2] | kq(HSA), HSA-quenching constant [2] | HSA fluorescence, % of the initial fluorescence intensity (I/Io) [2] [%] | Epa(f), anodic potential [3] [mV] | Epc(f), cathodic potential [3] [mV] | Epa(b), anodic potential [3] [mV] | Epc(b), cathodic potential [3] [mV] | Kr/Kox, ratio of equilibrium DNA-binding constants (reduced/oxidized form) [3]
1 | CN1CCN(c2c(F)cc3c(=O)c(C(=O)[O-])cn(CCF)c3c2F)CC1.CN1CCN(c2c(F)cc3c(=O)c(C(=O)[O-])cn(CCF)c3c2F)CC1.[Cu+2] [complex 1, [Cu(flrx)2]] | 7.19(±0.21) × 10^4 M^−1 | 1.87(±0.09) × 10^13 M^−1s^−1 | 17.3 | 8.39(±0.27) × 10^4 M^−1 | 1.09(±0.08) × 10^13 M^−1s^−1 | 33.3 | −504 | −725 | −462 | −735 | 1.31
2 | CN1CCN(c2c(F)cc3c(=O)c(C(=O)[O-])cn(CCF)c3c2F)CC1.CN1CCN(c2c(F)cc3c(=O)c(C(=O)[O-])cn(CCF)c3c2F)CC1.O.O.[Mn+2] [complex 2, [Mn(flrx)2(H2O)2]] | 1.45(±0.04) × 10^5 M^−1 | 3.45(±0.16) × 10^13 M^−1s^−1 | 11.1 | 9.58(±0.39) × 10^4 M^−1 | 1.42(±0.04) × 10^13 M^−1s^−1 | 28.5 | −455 | −684 | −466 | −678 | 0.96
3 | CN1CCN(c2c(F)cc3c(=O)c(C(=O)[O-])cn(CCF)c3c2F)CC1.CN1CCN(c2c(F)cc3c(=O)c(C(=O)[O-])cn(CCF)c3c2F)CC1.CO.CO.[Co+2] [complex 4, [Co(flrx)2(MeOH)2]] | 1.02(±0.05) × 10^5 M^−1 | 1.34(±0.03) × 10^13 M^−1s^−1 | 26.3 | 7.68(±0.33) × 10^4 M^−1 | 6.05(±0.13) × 10^12 M^−1s^−1 | 44.3 | −483 | −724 | −455 | −735 | 1.15
4 | CN1CCN(c2c(F)cc3c(=O)c(C(=O)[O-])cn(CCF)c3c2F)CC1.CN1CCN(c2c(F)cc3c(=O)c(C(=O)[O-])cn(CCF)c3c2F)CC1.CO.CO.[Ni+2] [complex 5, [Ni(flrx)2(MeOH)2]] | 1.75(±0.07) × 10^5 M^−1 | 2.37(±0.13) × 10^13 M^−1s^−1 | 19.2 | 5.76(±0.28) × 10^4 M^−1 | 1.09(±0.03) × 10^13 M^−1s^−1 | 34.1 | −495 | −706 | −501 | −701 | 0.99
5 | CN1CCN(c2c(F)cc3c(=O)c(C(=O)[O-])cn(CCF)c3c2F)CC1.[Cl-].[Cu+2].c1ccc(-c2ccccn2)nc1 [complex 6, [Cu(flrx)(bipy)Cl]] | 6.12(±0.33) × 10^4 M^−1 | 1.59(±0.07) × 10^13 M^−1s^−1 | 25.7 | 1.02(±0.03) × 10^5 M^−1 | 6.08(±0.06) × 10^12 M^−1s^−1 | 48.5 | −450 | −710 | −323 | −740 | 2.28
